Source: US20230349922A1, “H2 Blockers Targeting Liver Macrophages for the Prevention and Treatment of Liver Disease and Cancer” (Université de Strasbourg, priority 2020, published 2023)

Assays:
[1] = system: prognostic liver signature (PLS); experiment: cPLS model: reversal of the prognostic liver signature in HCV-infected Huh7.5.1dif cells; assay type: cell-based, human; details: Huh7.5.1dif cells infected with HCV Jc1 for 7 days, treated 3 additional days; GSEA
intracellular cAMP = experiment: Intracellular cAMP level by ELISA in HCV-infected Huh7.5.1dif cells; assay type: cell-based, human; details: increase following induction of the poor-prognosis PLS (HCV Jc1 5 days), nizatidine 3 more days
Method: ELISA Assay. To assess the HCV infection and nizatidine treatment on intracellular cAMP level, Huh7.5.1^dif cells were infected with HCV Jc1 for 5 days and were incubated for 3 more days with nizatidine or DMSO as a control. The cAMP level was measured by ELISA assay using the cAMP Parameter Assay Kit (R&D System) according to manufacturer's instructions.

liver macrophages = experiment: scRNA-Seq of CD45+ leucocytes from patient liver tissue treated with nizatidine; assay type: cell-based, human
Method: Single-Cell RNA-Seq Analyses of Patient Liver Tissues. Human cells were dissociated from HCC patient liver tissues. Fresh or cryopreserved tissues were minced into 2 to 3 mm pieces and incubated with collagenase (0.5 mg/mL) for 30 minutes at 37° C. Digested tissues were filtered through a sterile nylon mesh to separate the dispersed cells from tissue fragments and washed with Hanks' Balanced Salt Solution (HBSS). Cells were then centrifuged at 600×g for 5 minutes at 4° C. Leucocytes CD45^+ cells were separated from other cell types by flow cytometry using SH800 cell sorter (Sony). Briefly, 500,000 cells per condition were stained with human CD45 specific antibody. Living cells were selected using Zombie green staining according to manufacturer's instructions. Data were acquired using the Sony Cell Sorter Software. Cells were then cultured in MammoCultTM medium and treated with nizatidine 50 μM or DMSO vehicle control. Two days after treatment, single cells were sorted into 384 well cell capture plates (Single Cell Discovery, website: www.scdiscoveries.com) using SH800 cell sorter (Sony). The plates contain mineral oil and droplets of poly-A primers, containing a cell-specific barcode and a unique molecular identifier (UMI), enabling to distinguish the well-specific (and cell-specific) mRNA molecules. scRNA-Seq was performed by Single-Cell Discoveries B.V. using SORT-seq protocol (Muraro et al., Pancreas Cell Syst., 2016, 3: 385-394, e3). Single Cell RNA-Seq Profiling of Human Cells. scRNA-Seq analysis of patient-derived liver tissue was assessed using R version 3.5.3 with package “[…]” for clusterization, cluster analysis and DEG calculation, as previously described (Aizarani et al., Nature; 2019, 572: 199-204).

[2] = system: M1-polarized THP-1 macrophages; experiment: Cytokine expression by qRT-PCR in M1-polarized THP-1 macrophages; assay type: cell-based, human
Method: Real-Time qRT-PCR. cDNAs were synthetized by reverse transcription using SuperScript III First-Strand Synthesis SuperMix (Life Technologies). Expression of mouse IL6, TNFα and IL1β was analyzed by quantitative real-time PCR using TaqMan Gene Expression Assays (Thermo Fisher Scientific) on the CFX96 Touch Real-Time PCR Detection System PCR system (Bio-Rad). Expression of human CCL2 and TGF was analyzed using iTaq™ Universal SYBR® Green Supermix (Bio-Rad). The 2^−ΔCT method was used for relative quantification (Schmittgen and Livak, Nature Protoc., 2008, 3: 1101-1108) of mRNA with normalization to 18S. The 2^−ΔCT method was used for relative quantification (Schmittgen and Livak, Nature Protoc., 2008, 3: 1101-1108) of mRNA with normalization to GAPDH mRNA.
M1 Macrophage Polarization and HRH2 Blocker Treatment. THP1 cells were cultured in RPMI 1640 Medium with GlutaMAX™-I supplement and HEPES and supplemented with 10% FBS and gentamycin (0.05 mg/mL). M1 macrophage polarization from THP-1 was performed as previously described (Yeung et al., J. Hepatol., 2015, 62: 607-616). To generate MO THP-1 macrophages, THP1 cells were treated with PMA 320 nM for 24 hours. To generate M1-polarized THP-1 macrophages, THP-1 cells were treated with […] then with 100 ng/ml LPS and 20 ng/ml IFNγ for 18 hours. […]

[3] = system: tumor associated macrophages (TAMs); experiment: IL6 expression in M1-polarized tumor associated macrophages from patient HCCs; assay type: cell-based, human; details: patient-derived tumor macrophages
Method: FIG. 5. Effect of Nizatidine and HRH2 KO on Cytokine Expression in a Cell Culture Model for M1 Macrophages. (A) Representative picture of differentiated macrophages. To generate macrophage-like cells (MO), THP-1 cells were treated with PMA for 24 hours. To generate M1-polarized THP-1 macrophages, THP-1 cells were treated with PMA plus LPS and IFNγ. M1-polarized THP-1 were treated with nizatidine for 48 hours. (B) Gene expression of different cytokines was measured by qRT-PCR. Results are expressed as mean+s.e.m from 3 independent experiments performed in triplicate. * denotes p<0.05; ** denotes p<0.01; *** denotes p<0.001. (C) Representative picture of M1 differentiated patient-derived Kupffer cells. To generate M1-polarized macrophages, patient Kupffer cells were treated with LPS and IFNγ. (D) Gene expression of different cytokines was measured by qRT-PCR. Results are expressed as mean+s.d. from one experiment performed in duplicate. (E) IL6 expression in M1-polarized tumor associated macrophages (TAMs) isolated from different patient HCCs and treated with nizatidine. Results are expressed as mean+/−SD from one experiment performed in triplicate or quadruplicate. […] KO efficacy was assessed at genetic level by T7 endonuclease assay. […] Right: Pro-inflammatory cytokines and markers expression were analyzed by qRT-PCR (mean+/−SD n=3, one representative experiment out of two is shown).

[4] = system: primary human hepatocytes (PHH); experiment: Cell viability of primary human hepatocytes in 3D culture; assay type: cell-based; details: 4 days after nizatidine treatment, compared to DMSO
Method: FIG. 9. Proof-of-concept for Therapeutic Impact of Nizatidine in Patient-Derived HCC Spheroids. (A) Absent effect on cell viability in PHH, assessed 4 days after nizatidine treatment in 3D culture. […] (B) Nizatidine decreases HCC cell viability in a 3D patient-derived tumorspheroid model. HCC spheroids were generated from patient HCC tissues with different etiologies. Cell viability was assessed 4 days after treatment by measuring ATP levels. […] The pictures show representative image of patient-derived tumorspheroids (magnification X40). NASH=non-alcoholic steatohepatitis; ALD=alcoholic liver disease. Source data are provided as a Source Data file.

[5] = GSEA, nizatidine-treated vs CTRL macrophages
[6] = gene-level analysis in macrophages
[7] = nizatidine 50 μM, two days, scRNA-Seq
[8] = activated THP1-derived macrophages

## CNC(=C[N+](=O)[O-])NCCSCc1csc(CN(C)C)n1 [Nizatidine, N-[2-[[[2-[(dimethylamino)methyl]-4-thizaolyl]methyl]thio]ethyl]-N′-methyl-2-nitro-1,1-ethene-diamine]
[1]
  reversal of the poor prognosis status of the prognostic liver signature (PLS): PLS-reversing compounds with highest statistical significance
Intracellular cAMP
  intracellular cAMP level: reverted
Liver macrophages; [5]
  IFNγ response and antigen processing and presentation: augmenting IFNγ response and antigen processing and presentation
  c-Myc pathway expression: strong suppression of the c-Myc pathway expression
  immunoregulatory macrophage (M2) signature: only partially induces the immunoregulatory macrophage (M2) signature
  pro-inflammatory and pro-fibrogenic responses (TNFα, IL2 and IL6 signaling pathways): suppresses pro-inflammatory and pro-fibrogenic responses
  pro-inflammatory macrophage (M1) signature: suppresses the pro-inflammatory macrophage (M1) signature
Liver macrophages; [6]
  major histocompatibility complex (MHC) molecules expression: increase in major histocompatibility complex (MHC) molecules expression
  neutrophil/monocyte chemoattractant and pro-inflammatory cytokine expression (CXCL5, CCL2, CCL5): decrease in neutrophil/monocyte chemoattractant and pro-inflammatory cytokine expression
  pro-fibrotic/tumorigenic soluble factor expression (IL6, IL1b, PDGF, MMP9, TNFα): suppression of pro-fibrotic/tumorigenic soluble factor expression
Liver macrophages; [7]
  Siglec-10 expression in macrophages: decreases expression
  macrophage CLEC5A expression: decreased macrophage CLEC5A expression
[2]; THP1-derived M1-polarized macrophages, nizatidine 48 hours
  pro-inflammatory cytokine expression: direct effect
[2]; [8]
  IL6 expression: decreased
  TNFα expression: decreased
[3]
  pro-inflammatory cytokine expression (IL6): direct effect
[4]
  PHH viability: no effect
